Test results taken from US20230165831A1, “METHOD AND COMPOSITION FOR RENDERING CANCER CELLS SUSCEPTIBLE TO TREATMENT BY TARGETED ONCOGENETIC DRIVERS” (IMPACT BIOLIFE SCIENCE, INC., priority 2021, published 2023).
Like-named read-outs stand apart in the source and are kept apart here.

Legend:
[1] = tested on: pancreatic cancer line Capan-1 cells; test: CTG (CellTiter-Glo) cell viability assay, 6×6 combo matrix, 72 h, Capan-1; assay type: cell-based; settings: for Relatively Cell inhibition of vehicle control(%): Capan-1
Outline: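 Capan-1 cells were seeded at 3000 cells per well and incubated overnight at 37 °C/5% CO2. They were then treated with compounds in a 6×6 combination matrix for 72 h at 37 °C/5% CO2. Viability was read by CellTiter-Glo luminescence to assess inhibition and synergy.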

[2] = tested on: breast cancer line T47D cells;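 note: luminescence read-out after 72 h at 37 °C under 5% CO2, with medium-only wells as blanks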
[3] = tested on: prostate adenocarcinoma line LNCap cells;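 note: luminescence signal read after adding CellTiter-Glo reagent, with cells exposed to compounds for 72 h at 37 °C under 5% CO2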
Description: (§1) To measure the cell inhibition effect of compounds and synergy effect of test articles on ten (10) cell lines using standard CTG assay.
(§2) 7) Using complete cell medium, adjust the volume of the suspension to achieve a cell concentration.
(§3) b. A549, T47D, SK-OV-3, MKN45, SK-Hep-1, HT-29, Capan-1, 786-O and LNCaP cell line, for compounds and vehicle groups, the seeding density of cell lines is 3000 cells/80 µL per well. For blank groups, add 100 µL medium. For PBS groups, add 100 µL PBS.
(§4) 8) Incubate the U87MG, A549, T47D, SK-OV-3, MKN45, SK-Hep-1, HT-29, Capan-1, 786-O and LNCaP cells overnight at 37° C./5% CO2.
(§5) Solid compound of cis-platinum was solubilized in PBS to a stock solution of 3.333 mM.
(§6) Final volume is 100 µL per well at this point.
(§7) 5) Incubate the plates at 37° C./5% CO2 for 72 hours.
(§8) 1) Incubate the plates at room temperature and away from light for 30 minutes.
(§9) 3) Add 100 µL /well of CellTiter-Glo® Reagent in each well. Avoid light.
(§10) 4) Mix contents for 2 minutes on an orbital shaker.
(§11) 5) Incubate plate at room temperature for 10 minutes to stabilize the luminescent signal.
6) Read plates in Envision.

[4] = tested on: kidney cancer line 786-O cells;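 note: luminescence read-out after adding CellTiter-Glo reagent, with cells incubated at 37 °C under 5% CO2 during compound exposure, part of a ten cell line synergy study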
[5] = tested on: Liver cancer line SK-HEP-1 cells;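 note: luminescent signal read after 72 h compound exposure at 37 °C under 5% CO2, with medium-only wells serving as blank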
Description: as §1, §2, §3, §4, §5, §6, §7, §8, §9, §10, §11
6) Read plates in Envision.

[6] = tested on: ovarian cancer line SK-OV3 cells;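 note: luminescent signal read after CellTiter-Glo addition, cells exposed to compounds for 72 h at 37 °C under 5% CO2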
Description: as §1, §2
(§12) A549, T47D, SK-OV-3, MKN45, SK-Hep-1, HT-29, Capan-1, 786-O and LNCaP cell line, for compounds and vehicle groups, the seeding density of cell lines is 3000 cells/80 µL per well. For blank groups, add 100 µL medium. For PBS groups, add 100 µL PBS.
as §4, §5, §6, §7, §8, §9, §10, §11
6) Read plates in Envision.

[7] = tested on: breast cancer line T47D cells; test: CTG (CellTiter-Glo) cell viability assay, 6×6 combo matrix, 72 h, T47D; settings: Homo sapiens;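 note: luminescence read-out after 72 h at 37 °C under 5% CO2, with medium-only wells as blanks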
[8] = tested on: colorectal cancer line HT29 cells; test: CTG (CellTiter-Glo) cell viability assay, 6×6 combo matrix, 72 h, HT29; settings: for Relatively Cell inhibition of vehicle control(%): HT29;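 for all read-outs here: cells exposed to compounds for 72 hours at 37 °C under 5% CO2, then viability read as luminescence after adding CellTiter-Glo Reagent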
Description: as §1, §2, §3, §4, §5, §6, §7, §8, §9, §10, §11
6) Read plates in Envision.

[9] = tested on: lung adenocarcinoma line A549 cells; test: CTG (CellTiter-Glo) cell viability assay, 6×6 combo matrix, 72 h, A549; settings: for Relatively Cell inhibition of vehicle control(%): A549;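 for all read-outs here: luminescent ATP readout with CellTiter-Glo after compound exposure, used to assess growth inhibition and combination synergy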
[10] = tested on: prostate adenocarcinoma line LNCap cells; test: CTG (CellTiter-Glo) cell viability assay, 6×6 combo matrix, 72 h, LNCaP; settings: Homo sapiens, LNCaP;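 note: luminescence signal read after adding CellTiter-Glo reagent, with cells exposed to compounds for 72 h at 37 °C under 5% CO2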
Description: as §1, §2, §3, §4, §5, §6, §7, §8, §9, §10, §11
6) Read plates in Envision.

[11] = tested on: gastric cancer line MKN45 cells; test: CTG (CellTiter-Glo) cell viability assay, 6×6 combo matrix, 72 h, MKN45;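 note: MKN45 cell viability read as CellTiter-Glo luminescence after 72 h culture at 37 °C under 5% CO2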
[12] = tested on: kidney cancer line 786-O cells; test: CTG (CellTiter-Glo) cell viability assay, 6×6 combo matrix, 72 h, 786-O; settings: for Relatively Cell inhibition of vehicle control(%): 786-O;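 for all read-outs here: luminescence read-out after adding CellTiter-Glo reagent, with cells incubated at 37 °C under 5% CO2 during compound exposure, part of a ten cell line synergy study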
[13] = tested on: ovarian cancer line SK-OV3 cells; test: CTG (CellTiter-Glo) cell viability assay, 6×6 combo matrix, 72 h, SK-OV-3; settings: for Relatively Cell inhibition of vehicle control(%): SK-OV-3;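 for all read-outs here: luminescent signal read after CellTiter-Glo addition, cells exposed to compounds for 72 h at 37 °C under 5% CO2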
Description: as §1, §2, §12, §4, §5, §6, §7, §8, §9, §10, §11
6) Read plates in Envision.

[14] = tested on: Liver cancer line SK-HEP-1 cells; test: CTG (CellTiter-Glo) cell viability assay, 6×6 combo matrix, 72 h, SK-Hep-1; settings: Homo sapiens;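 note: luminescent signal read after 72 h compound exposure at 37 °C under 5% CO2, with medium-only wells serving as blank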
Description: as §1, §2, §3, §4, §5, §6, §7, §8, §9, §10, §11
6) Read plates in Envision.

[15] = Homo sapiens, HT-29, read-out: Relatively Cell inhibition of vehicle control(%)
[16] = Homo sapiens, A549, read-out: Relatively Cell inhibition of vehicle control(%)
[17] = Homo sapiens, 786-0, read-out: Relatively Cell inhibition of vehicle control

CC[C@@]1(O)C(=O)OCc2c1cc1n(c2=O)Cc2cc3c(CN(C)C)c(O)ccc3nc2-1 [topotecan]
inhibition at […] ([1]; Homo sapiens, CAPAN-1, topotecan 16 nM only, read-out: Relatively Cell inhibition of vehicle control): 21% | inhibition at 0.08 µM ([1]; Homo sapiens, CAPAN-1, topotecan 80 nM only, read-out: Relatively Cell inhibition of vehicle control): 53.9% | inhibition at 0.4 µM ([1]; Homo sapiens, CAPAN-1, topotecan 400 nM only, read-out: Relatively Cell inhibition of vehicle control): 74.3% | inhibition at 2 µM ([1]; Homo sapiens, CAPAN-1, topotecan 2000 nM only, read-out: Relatively Cell inhibition of vehicle control): 88.4% | inhibition at 10 µM ([1]; Homo sapiens, CAPAN-1, topotecan 10000 nM only, read-out: Relatively Cell inhibition of vehicle control): 78.1% | Relatively Cell inhibition of vehicle control(%) ([1]; Top 16 nM only): 13.17% | Relatively Cell inhibition of vehicle control(%) ([1]; Top 80 nM only): 54.35% | Relatively Cell inhibition of vehicle control(%) ([1]; Top 400 nM only): 74.56% | Relatively Cell inhibition of vehicle control(%) ([1]; Top 2000 nM only): 88.92% | Relatively Cell inhibition of vehicle control(%) ([1]; Top 10000 nM only): 81.26% | inhibition [2]: 2.49% | inhibition [3]: 15.4% | inhibition [4]: 2.61% | inhibition [5]: -0.38% | inhibition [6]: 23% | inhibition at […] ([7]; read-out: Relatively Cell inhibition of vehicle control(%), T47D, 16 nM topotecan only (myricetin 0)): 12.5% | inhibition at 0.08 µM ([7]; read-out: Relatively Cell inhibition of vehicle control(%), T47D, 80 nM topotecan only (LB-1 0)): 29.6% | inhibition at 0.08 µM ([7]; read-out: Relatively Cell inhibition of vehicle control(%), T47D, 80 nM topotecan only (myricetin 0)): 36.9% | inhibition at 0.4 µM ([7]; read-out: Relatively Cell inhibition of vehicle control(%), T47D, 400 nM topotecan only (LB-1 0)): 45.7% | inhibition at 0.4 µM ([7]; read-out: Relatively Cell inhibition of vehicle control(%), T47D, 400 nM topotecan only (myricetin 0)): 53.9% | inhibition at 2 µM ([7]; read-out: Relatively Cell inhibition of vehicle control(%), T47D, 2000 nM topotecan only (LB-1 0)): 58.3% | inhibition at 2 µM ([7]; read-out: Relatively Cell inhibition of vehicle control(%), T47D, 2000 nM topotecan only (myricetin 0)): 62.7% | inhibition at 10 µM ([7]; read-out: Relatively Cell inhibition of vehicle control(%), T47D, 10000 nM topotecan only (LB-1 0)): 57.7% | inhibition at 10 µM ([7]; read-out: Relatively Cell inhibition of vehicle control(%), T47D, 10000 nM topotecan only (myricetin 0)): 61.9% | inhibition at 0.08 µM [8, 15]: 26.1% | inhibition at 0.4 µM [8, 15]: 64.8% | inhibition at 2 µM [8, 15]: 93.2% | inhibition at 10 µM [8, 15]: 79.4% | Relatively Cell inhibition of vehicle control(%) ([8]; Top 16 nM only (Myr 0)): 11.50% | Relatively Cell inhibition of vehicle control(%) ([8]; Top 80 nM only (Myr 0)): 21.57% | Relatively Cell inhibition of vehicle control(%) ([8]; Top 400 nM only (Myr 0)): 71.12% | Relatively Cell inhibition of vehicle control(%) ([8]; Top 2000 nM only (Myr 0)): 94.54% | Relatively Cell inhibition of vehicle control(%) ([8]; Top 10000 nM only (Myr 0)): 82.42% | inhibition at 0.08 µM [9, 16]: 34.9% | inhibition at 0.4 µM [9, 16]: 60% | inhibition at 2 µM [9, 16]: 79.7% | inhibition at 10 µM [9, 16]: 94.4% | Relatively Cell inhibition of vehicle control(%) ([9]; Top 16 nM only): -0.68% | Relatively Cell inhibition of vehicle control(%) ([9]; Top 80 nM only): 37.94% | Relatively Cell inhibition of vehicle control(%) ([9]; Top 400 nM only): 62.21% | Relatively Cell inhibition of vehicle control(%) ([9]; Top 2000 nM only): 80.57% | Relatively Cell inhibition of vehicle control(%) ([9]; Top 10000 nM only): 93.99% | inhibition at […] ([10]; read-out: Relatively Cell inhibition of vehicle control(%), topotecan 16 nM only (myricetin plate)): 17.6% | inhibition at 0.08 µM ([10]; read-out: Relatively Cell inhibition of vehicle control(%), topotecan 80 nM only (LB-1 plate)): 37.8% | inhibition at 0.08 µM ([10]; read-out: Relatively Cell inhibition of vehicle control(%), topotecan 80 nM only (myricetin plate)): 40.1% | inhibition at 0.4 µM ([10]; read-out: Relatively Cell inhibition of vehicle control(%), topotecan 400 nM only (LB-1 plate)): 55.9% | inhibition at 0.4 µM ([10]; read-out: Relatively Cell inhibition of vehicle control(%), topotecan 400 nM only (myricetin plate)): 60% | inhibition at 2 µM ([10]; read-out: Relatively Cell inhibition of vehicle control(%), topotecan 2000 nM only (LB-1 plate)): 82.1% | inhibition at 2 µM ([10]; read-out: Relatively Cell inhibition of vehicle control(%), topotecan 2000 nM only (myricetin plate)): 83.6% | inhibition at 10 µM ([10]; read-out: Relatively Cell inhibition of vehicle control(%), topotecan 10000 nM only (LB-1 plate)): 84.8% | inhibition at 10 µM ([10]; read-out: Relatively Cell inhibition of vehicle control(%), topotecan 10000 nM only (myricetin plate)): 87.5% | Relatively Cell inhibition of vehicle control(%) ([11]; Top 16 nM only (Myr 0)): 27.49% | Relatively Cell inhibition of vehicle control(%) ([11]; Top 80 nM only (LB-1 0)): 48.98% | Relatively Cell inhibition of vehicle control(%) ([11]; Top 80 nM only (Myr 0)): 53.47% | Relatively Cell inhibition of vehicle control(%) ([11]; Top 400 nM only (LB-1 0)): 84.58% | Relatively Cell inhibition of vehicle control(%) ([11]; Top 400 nM only (Myr 0)): 85.99% | Relatively Cell inhibition of vehicle control(%) ([11]; Top 2000 nM only (LB-1 0)): 91.55% | Relatively Cell inhibition of vehicle control(%) ([11]; Top 2000 nM only (Myr 0)): 92.29% | Relatively Cell inhibition of vehicle control(%) ([11]; Top 10000 nM only (LB-1 0)): 89.36% | Relatively Cell inhibition of vehicle control(%) ([11]; Top 10000 nM only (Myr 0)): 91.07% | inhibition at 0.08 µM [12, 17]: 68.1% | inhibition at 0.4 µM [12, 17]: 82.5% | inhibition at 2 µM [12, 17]: 91.7% | inhibition at 10 µM [12, 17]: 93.9% | Relatively Cell inhibition of vehicle control(%) ([12]; Top 80 nM only (LB-1 0)): 68.14% | Relatively Cell inhibition of vehicle control(%) ([12]; Top 400 nM only (LB-1 0)): 83.15% | Relatively Cell inhibition of vehicle control(%) ([12]; Top 2000 nM only (LB-1 0)): 91.65% | Relatively Cell inhibition of vehicle control(%) ([12]; Top 10000 nM only (LB-1 0)): 93.59% | inhibition at 1 µM ([13]; Homo sapiens, SK-OV-3, read-out: inhibition rate): 93.9% | Relatively Cell inhibition of vehicle control(%) ([13]; Top 16 nM only (myricetin matrix)): 21.67% | Relatively Cell inhibition of vehicle control(%) ([13]; Top 80 nM only (LB-1 matrix)): 68.74% | Relatively Cell inhibition of vehicle control(%) ([13]; Top 80 nM only (myricetin matrix)): 67.77% | Relatively Cell inhibition of vehicle control(%) ([13]; Top 400 nM only (LB-1 matrix)): 83.70% | Relatively Cell inhibition of vehicle control(%) ([13]; Top 400 nM only (myricetin matrix)): 82.50% | Relatively Cell inhibition of vehicle control(%) ([13]; Top 2000 nM only (LB-1 matrix)): 90.55% | Relatively Cell inhibition of vehicle control(%) ([13]; Top 2000 nM only (myricetin matrix)): 90.97% | Relatively Cell inhibition of vehicle control(%) ([13]; Top 10000 nM only (myricetin matrix)): 94.18% | inhibition at […] ([14]; SK-HEP1, read-out: Relatively Cell inhibition of vehicle control, topotecan 16 nM only (myricetin table)): -4.24% | inhibition at 0.08 µM ([14]; SK-HEP1, read-out: Relatively Cell inhibition of vehicle control, topotecan 80 nM only (LB-1 table)): 9.52% | inhibition at 0.08 µM ([14]; SK-HEP1, read-out: Relatively Cell inhibition of vehicle control, topotecan 80 nM only (myricetin table)): 16% | inhibition at 0.4 µM ([14]; SK-HEP1, read-out: Relatively Cell inhibition of vehicle control, topotecan 400 nM only (LB-1 table)): 35.4% | inhibition at 0.4 µM ([14]; SK-HEP1, read-out: Relatively Cell inhibition of vehicle control, topotecan 400 nM only (myricetin table)): 37.7% | inhibition at 2 µM ([14]; SK-HEP1, read-out: Relatively Cell inhibition of vehicle control, topotecan 2000 nM only (LB-1 table)): 70.3% | inhibition at 2 µM ([14]; SK-HEP1, read-out: Relatively Cell inhibition of vehicle control, topotecan 2000 nM only (myricetin table)): 74.2% | inhibition at 10 µM ([14]; SK-HEP1, read-out: Relatively Cell inhibition of vehicle control, topotecan 10000 nM only (LB-1 table)): 98.6% | inhibition at 10 µM ([14]; SK-HEP1, read-out: Relatively Cell inhibition of vehicle control, topotecan 10000 nM only (myricetin table)): 99.1% | inhibition at 1 µM ([14]; SK-HEP1, read-out: inhibition rate, 1000 nM topotecan only (footnote of the LB-1 table)): 98.6%
